According to patent US20210261642A1, “SOLUBILITY OF GLP-1 PEPTIDE” (Novo Nordisk A/S, priority 2017, published 2021):

Test: Assay (I): Determination of Solubility (96-well plate, pH 3.0-11.0, organic solvent 0-70% w/w, UV absorption at 280 nm)
Assay type: physicochemical
Details: Method 1
Procedure: Assay (I): Determination of Solubility
96-Well Plate Preparation
96-well plates containing target peptide in a solid form were prepared in one of two ways:
Method 1 (evaporation): Addition of 100 μl stock solution of said peptide at a concentration of 4-6 mg/ml to each well of a 96-well half area plate (150 μl well size). Subsequently the solvent was evaporated by applying a vacuum until the solvent was completely removed.
Method 2 (precipitation): Addition of a certain volume of a stock solution of said peptide containing to each well of a 96-well half area plate followed by the addition of a certain volume of concentrated phosphoric acid to obtain a pH of 4.6 followed by addition of a certain volume of ethanol resulting in a final ethanol concentration of 20% v/v. Subsequently the plate was stored at 4° C. for 1 h and then centrifuged at 4,000 rpm for 20 min. Finally the supernatant was removed. The concentration of the stock solution was chosen in a way that the final amount of peptide after supernatant removal was >0.4 mg per well.
In both cases the stock solution was prepared by adding de-ionized water to a certain amount of powder of said peptide followed by a stepwise addition of small amounts of a concentrated sodium hydroxide solution until said peptide was completely in solution.
To determine solubility of a target peptide at different pH and organic solvent concentrations, two different buffer systems were used in independent experiments to cover the whole range from pH 3.0 to pH 11.0. Buffer system 1 covers pH 3.0-7.5 and buffer system 2 covers pH 7.5-11.0. For each buffer system 96 different solvent compositions were premixed in the following way: • 1. A low pH buffer (adjusted to either pH 3.0 or pH 7.5) and a high pH buffer (adjusted to either pH 7.5 or pH 11.0) were mixed at 8 different ratios to obtain values between pH 3.0 and pH 7.5 or pH 7.5 and pH 11.0, respectively. The total volume after mixing was 300 μl. • 2. 12 different amounts of organic solvent were then added to these buffers to obtain organic solvent (e.g. ethanol) concentrations between 0 and 70% w/w. • 3. Water was then added to obtain a total weight of 1.0 g of solvent in each well.
After preparing the 96 different solvent systems, 100 μl of each system was transferred to the 96-well plate containing the solid form of the target peptide (prepared as described in the section “96-well plate preparation”). The plate was then stored at a given temperature (between 5° C. and 70° C.) for a given time on a rotating shaker set to 400 rpm. At regular time intervals the plate was centrifuged (4,000 rpm for 10 min) and a 10 μl sample was taken from each well. The samples were then analysed by UV absorption at 280 nm for peptide quantification. Peptide concentration results are given as UV absorption at 280 nm of the sample subtracted UV absorption at 280 nm of a well comprising 10 μl water.
The buffers used were as follows: • Buffer system 1 (for the pH range from pH 3.0-7.5)
• Buffer system 2 (for the pH ranae from pH 7.5-11.0)
Solubility of liraglutide was determined using Assay (I) described herein. Liraglutide was prepared using Method 1 (evaporation) or Method 2 (precipitation) as described in subsection “96-well plate preparation”.

CCCCCCCCCCCCCCCC(=O)N[C@@H](CCC(=O)NCCCC[C@H](NC(=O)[C@H](C)NC(=O)[C@H](C)NC(=O)[C@H](CCC(N)=O)NC(=O)CNC(=O)[C@H](CCC(=O)O)NC(=O)[C@H](CC(C)C)NC(=O)[C@H](Cc1ccc(O)cc1)NC(=O)[C@H](CO)NC(=O)[C@H](CO)NC(=O)[C@@H](NC(=O)[C@H](CC(=O)O)NC(=O)[C@H](CO)NC(=O)[C@@H](NC(=O)[C@H](Cc1ccccc1)NC(=O)[C@@H](NC(=O)CNC(=O)[C@H](CCC(=O)O)NC(=O)[C@H](C)NC(=O)[C@@H](N)Cc1cnc[nH]1)[C@@H](C)O)[C@@H](C)O)C(C)C)C(=O)N[C@@H](CCC(=O)O)C(=O)N[C@@H](Cc1ccccc1)C(=O)N[C@H](C(=O)N[C@@H](C)C(=O)N[C@@H](Cc1c[nH]c2ccccc12)C(=O)N[C@@H](CC(C)C)C(=O)N[C@H](C(=O)N[C@@H](CCCNC(=N)N)C(=O)NCC(=O)N[C@@H](CCCNC(=N)N)C(=O)NCC(=O)O)C(C)C)[C@@H](C)CC)C(=O)O [liraglutide, Arg34,Lys26-(N-epsilon-(gamma-L-glutamyl(N-alfa-hexadecanoyl)))-GLP-1(7-37)]
Peptide concentration after 5 min (MeCN 19.1% w/w, pH 8.5, 5° C.): 1.2 mg/mL | Peptide concentration after 180 min (MeCN 19.1% w/w, pH 8.5, 5° C.): 2.5 mg/mL | Peptide concentration after 24 h (MeCN 19.1% w/w, pH 8.5, 5° C.): >4.0 mg/mL | Peptide concentration after 5 min (MeCN 19.1% w/w, pH 9.0, 5° C.): 0.9 mg/mL | Peptide concentration after 180 min (MeCN 19.1% w/w, pH 9.0, 5° C.): 2.3 mg/mL | Peptide concentration after 24 h (MeCN 19.1% w/w, pH 9.0, 5° C.): >4.0 mg/mL | Peptide concentration after 5 min (MeCN 19.1% w/w, pH 9.5, 5° C.): 1.1 mg/mL | Peptide concentration after 180 min (MeCN 19.1% w/w, pH 9.5, 5° C.): 3.3 mg/mL | Peptide concentration after 24 h (MeCN 19.1% w/w, pH 9.5, 5° C.): >4.0 mg/mL | Peptide concentration after 5 min (MeCN 19.1% w/w, pH 10.0, 5° C.): 1.4 mg/mL | Peptide concentration after 180 min (MeCN 19.1% w/w, pH 10.0, 5° C.): 3.8 mg/mL | Peptide concentration after 24 h (MeCN 19.1% w/w, pH 10.0, 5° C.): >4.0 mg/mL | Peptide concentration after 5 min (MeCN 19.1% w/w, pH 10.5, 5° C.): 1.4 mg/mL | Peptide concentration after 180 min (MeCN 19.1% w/w, pH 10.5, 5° C.): >4.0 mg/mL | Peptide concentration after 24 h (MeCN 19.1% w/w, pH 10.5, 5° C.): >4.0 mg/mL | Peptide concentration after 5 min (MeCN 19.1% w/w, pH 11.0, 5° C.): 1.0 mg/mL | Peptide concentration after 180 min (MeCN 19.1% w/w, pH 11.0, 5° C.): 2.6 mg/mL | Peptide concentration after 24 h (MeCN 19.1% w/w, pH 11.0, 5° C.): >4.0 mg/mL | Peptide concentration after 5 min (MeCN 25.5% w/w, pH 8.0, 5° C.): 1.1 mg/mL | Peptide concentration after 180 min (MeCN 25.5% w/w, pH 8.0, 5° C.): 3.2 mg/mL | Peptide concentration after 24 h (MeCN 25.5% w/w, pH 8.0, 5° C.): >4.0 mg/mL | Peptide concentration after 5 min (MeCN 25.5% w/w, pH 8.5, 5° C.): 1.4 mg/mL | Peptide concentration after 180 min (MeCN 25.5% w/w, pH 8.5, 5° C.): 3.5 mg/mL | Peptide concentration after 24 h (MeCN 25.5% w/w, pH 8.5, 5° C.): >4.0 mg/mL | Peptide concentration after 5 min (MeCN 25.5% w/w, pH 9.0, 5° C.): 0.5 mg/mL | Peptide concentration after 180 min (MeCN 25.5% w/w, pH 9.0, 5° C.): >4.0 mg/mL | Peptide concentration after 24 h (MeCN 25.5% w/w, pH 9.0, 5° C.): >4.0 mg/mL | Peptide concentration after 5 min (MeCN 25.5% w/w, pH 9.5, 5° C.): 1.2 mg/mL | Peptide concentration after 180 min (MeCN 25.5% w/w, pH 9.5, 5° C.): >4.0 mg/mL | Peptide concentration after 24 h (MeCN 25.5% w/w, pH 9.5, 5° C.): >4.0 mg/mL | Peptide concentration after 5 min (MeCN 25.5% w/w, pH 10.0, 5° C.): 1.4 mg/mL | Peptide concentration after 180 min (MeCN 25.5% w/w, pH 10.0, 5° C.): 3.4 mg/mL | Peptide concentration after 24 h (MeCN 25.5% w/w, pH 10.0, 5° C.): >4.0 mg/mL | Peptide concentration after 5 min (MeCN 25.5% w/w, pH 10.5, 5° C.): 1.5 mg/mL | Peptide concentration after 180 min (MeCN 25.5% w/w, pH 10.5, 5° C.): 3.8 mg/mL | Peptide concentration after 24 h (MeCN 25.5% w/w, pH 10.5, 5° C.): >4.0 mg/mL | Peptide concentration after 5 min (MeCN 25.5% w/w, pH 11.0, 5° C.): 1.0 mg/mL | Peptide concentration after 180 min (MeCN 25.5% w/w, pH 11.0, 5° C.): 3.1 mg/mL | Peptide concentration after 24 h (MeCN 25.5% w/w, pH 11.0, 5° C.): >4.0 mg/mL | Peptide concentration after 5 min (MeCN 31.8% w/w, pH 8.0, 5° C.): 0.9 mg/mL | Peptide concentration after 180 min (MeCN 31.8% w/w, pH 8.0, 5° C.): 2.7 mg/mL | Peptide concentration after 24 h (MeCN 31.8% w/w, pH 8.0, 5° C.): >4.0 mg/mL | Peptide concentration after 5 min (MeCN 31.8% w/w, pH 8.5, 5° C.): 2.1 mg/mL | Peptide concentration after 180 min (MeCN 31.8% w/w, pH 8.5, 5° C.): 3.6 mg/mL | Peptide concentration after 24 h (MeCN 31.8% w/w, pH 8.5, 5° C.): >4.0 mg/mL | Peptide concentration after 5 min (MeCN 31.8% w/w, pH 9.0, 5° C.): 0.8 mg/mL | Peptide concentration after 180 min (MeCN 31.8% w/w, pH 9.0, 5° C.): 2.7 mg/mL | Peptide concentration after 24 h (MeCN 31.8% w/w, pH 9.0, 5° C.): >4.0 mg/mL | Peptide concentration after 5 min (MeCN 31.8% w/w, pH 9.5, 5° C.): 0.9 mg/mL | Peptide concentration after 180 min (MeCN 31.8% w/w, pH 9.5, 5° C.): 3.3 mg/mL | Peptide concentration after 24 h (MeCN 31.8% w/w, pH 9.5, 5° C.): >4.0 mg/mL
